From publication PMC9909315, “SY-707, an ALK/FAK/IGF1R inhibitor, suppresses growth and metastasis of breast cancer cells” (Acta Biochimica et Biophysica Sinica, 2022)

What was measured:
T47D xenograft = assay: T47D tumor xenograft study; type: in vivo, nude mice
Experimental: Due to the strong cell growth inhibition potency of SY-707, we firstly evaluate its in vivo anti-cancer activity in T47D xenograft model mice. In this model, mice were orally administered twice a day with vehicle or SY-707 at dose of 100, 50 or 25 mg/kg after tumor size reached 150–300 mm ^3.
Next, we evaluated the combination effects of SY-707 and paclitaxel (an approved drug for breast cancer therapy) in T47D xenograft model. Mice bearing T47D breast cancer were divided randomly into 4 groups: vehicle, SY-707 (100 mg/kg/day), paclitaxel (10 mg/kg/week), and SY-707 plus paclitaxel groups.

T47D cells = assay: Would healing (migration) assay; type: cell-based; details: 24 h, vs control
Experimental: (§1) Totally, 5×10 ^5 cells were plated into each well of 6-well plates, and cultured to 70%–80% confluence, then the cell monolayer was gently and slowly scratched with a new 1-mL pipette tip across the center of the well. After scratching, the wells were gently washed with PBS twice to remove the detached cells, and replenished with fresh medium containing indicated concentration of compounds. The treated cells were allowed to grow for additional 24 h, and images were capturedunder a microscope. The migration distance were calculated and analyzed to evaluate the effects of compounds.

MCF-7 cells = assay: Would healing (migration) assay; type: cell-based; details: MCF-7, 24 h, vs control
Experimental: as §1

[1] = system: 4T1 breast cancer metastasis to the lung; assay: Metastasis analysis in vivo (lung nodules, 4T1 model); parameters: species or system nude mice; details: 4T1, treatment alone: SY-707 100 mg/kg/day PO; paclitaxel 10 or 20 mg/kg/week IV; 20 days; not statistically different
Experimental: Metastasis was detected in mouse lungs after the mice were sacrificed at the last dosing day. The lungs of each mouse were excised immediately and fixed with 4% paraformaldehyde for 24 h, then the lungs were photographed (three photographs per section per mouse) and the metastatic nodules in the lungs were manually counted and the data was analyzed for compound evaluation.
Mice were inoculated with 4T1 cells in PBS at right and left flanks expect the normal control group ( Figure 6A), SY-707 with or without paclitaxel was administered for 20 days when tumor volumes reached 150–300 mm ^3. The mice were sacrificed on the last day of drug administration, then the lungs were collected and metastatic nodules were counted manually for the evaluation of metastasis of 4T1 breast cancer.
The normal group (A) and the vehicle group which treatment with 20% SBE (B) were control. Mouse lungs were taken at the last day of treatment and fixed with 4% paraformaldehyde for 24 h, then the lungs were photographed and the metastatic nodules were counted manually for further analysis. *P<0.05, **P<0.01.

| Structure (SMILES) | tumor growth inhibition rate (T47D xenograft; reference compound group, 21 days, dose not given) [%] | migration distance (T47D cells) | migration distance (MCF-7 cells) | tumor growth inhibition rate (T47D xenograft; combination study, paclitaxel 10 mg/kg/week alone, 24 days, P<0.05) [%] | number of metastatic nodules in the lungs vs vehicle group [1] |
| --- | --- | --- | --- | --- | --- |
| CN(c1ncccc1CNc1nc(Nc2ccc3c(c2)CC(=O)N3)ncc1C(F)(F)F)S(C)(=O)=O [PF-562271, reference compound] | 20 | significant reduction of migration | significant reduction of migration |  |  |
| CC(=O)O[C@H]1C(=O)[C@@]2(C)[C@H]([C@H](OC(=O)c3ccccc3)[C@]3(O)C[C@H](OC(=O)[C@H](O)[C@@H](NC(=O)c4ccccc4)c4ccccc4)C(C)=C1C3(C)C)[C@]1(OC(C)=O)CO[C@@H]1C[C@@H]2O [paclitaxel, reference compound] |  |  |  | 24 | reduced the number of metastatic nodules |
